Key:
[1] = tested on: Stat3 (Stat3–Stat3:DNA complex, EMSA); experiment: EMSA, Stat3-Stat3:DNA disruption; assay type: biochemical; details: nuclear extract
[2] = tested on: Stat3 (Stat3–Stat3:DNA complex, EMSA); experiment: in vitro Stat3 inhibition; assay type: biochemical; details: assay not given

SMILES	IC50 [1] [µM]	further results
Cc1ccc(S(=O)(=O)N(C)CC(=O)N(CC2CCCCC2)c2ccc(C(=O)O)c(O)c2)cc1 [27e, 27 e]	> 300	
Cc1ccc(S(=O)(=O)N(C)CC(=O)N(Cc2ccc(C#N)cc2)c2ccc(C(=O)O)c(O)c2)cc1 [27c, SF-1-073]	260 ± 47	
Cc1ccc(S(=O)(=O)N(C)CC(=O)N(Cc2ccccc2)c2ccc(C(=O)O)c(O)c2)cc1 [compound 14, SF-1-062]		IC50 ([1]; Table 2 prints 295 ± 35): 292 ± 35 µM
Cc1ccc(S(=O)(=O)N(C)CC(=O)N(Cc2ccc(-c3ccc(C#N)cc3)cc2)c2ccc(C(=O)O)c(O)c2)cc1 [27lf, 27 lf]		IC50 ([1]; read-out: [drawing 30] / IC50): 274 ± 10 µM
COC(=O)c1ccc(-c2ccc(CN(C(=O)CN(C)S(=O)(=O)c3ccc(C)cc3)c3ccc(C(=O)O)c(O)c3)cc2)cc1 [27ld, 27 ld]		IC50 ([1]; read-out: [drawing 30] / IC50, label printed 27 gld): 141 ± 10 µM
Cc1ccc(S(=O)(=O)NCC(=O)N(Cc2ccccc2)c2ccc(C(=O)O)c(O)c2)cc1 [compound 13, 13]	> 300	
Cc1ccc(S(=O)(=O)N(C)CC(=O)N(Cc2ccc(C3CCN(c4ccc(C#N)cc4)CC3)cc2)c2ccc(C(=O)O)c(O)c2)cc1 [27kd, 27 kd]	45 ± 12	
Cc1ccc(S(=O)(=O)N(C)CC(=O)N(Cc2ccc(C3CCNCC3)cc2)c2ccc(C(=O)O)c(O)c2)cc1 [27kb, 27 kb]	> 300	
Cc1ccc(S(=O)(=O)N(C)CC(=O)N(CC2CCN(c3ncccn3)CC2)c2ccc(C(=O)O)c(O)c2)cc1 [27jd, 27 jd]	> 300	
Cc1ccc(S(=O)(=O)N(C)CC(=O)N(CC2CCN(C(=O)OC(C)(C)C)CC2)c2ccc(C(=O)O)c(O)c2)cc1 [27jb, 27 jb]	> 300	
Cc1ccc(S(=O)(=O)N(CC(=O)N(Cc2ccccc2)c2ccc(C(=O)O)c(O)c2)C(=O)OC(C)(C)C)cc1 [compound 15, 15]	> 300	
Cc1ccc(S(=O)(=O)N(C)CC(=O)N(Cc2ccc(-c3cccc(C(N)=O)c3)cc2)c2ccc(C(=O)O)c(O)c2)cc1 [27lc, 27 lc]		IC50 ([1]; read-out: [drawing 30] / IC50): > 300 µM
Cc1ccc(S(=O)(=O)N(C)CC(=O)N(Cc2ccc(-c3ccc(-c4ccc(C(N)=O)cc4)cc3)cc2)c2ccc(C(=O)O)c(O)c2)cc1 [27nh, 27 nh]		IC50 ([1]; read-out: [drawing 31] / IC50): 43 ± 1.3 µM
O=C(O)c1ccc(N(Cc2ccc(C3CCCCC3)cc2)C(=O)CO)cc1O [compound 47, primary alcohol 47]		IC50 [2]: > 300 µM
COC(=O)c1cccc(-c2ccc(CN(C(=O)CN(C)S(=O)(=O)c3ccc(C)cc3)c3ccc(C(=O)O)c(O)c3)cc2)c1 [27la, 27 la]		IC50 ([1]; read-out: [drawing 30] / IC50): 191 ± 8 µM
Cc1ccc(S(=O)(=O)N(C)CC(=O)N(CC2CCN(c3ccc(C#N)cc3)CC2)c2ccc(C(=O)O)c(O)c2)cc1 [27jc, 27 jc]	> 300	
Cc1ccc(S(=O)(=O)N(C)CC(=O)Nc2ccc(C(=O)O)c(O)c2)cc1 [compound 10, 10]	> 300	
Cc1ccc(S(=O)(=O)N(C)CC(=O)N(Cc2ccc(C(C)(C)C)cc2)c2ccc(C(=O)O)c(O)c2)cc1 [27f, SF-1-068]	194 ± 47	
Cc1ccc(S(=O)(=O)OCC(=O)N(Cc2ccccc2)c2ccc(C(=O)O)c(O)c2)cc1 [compound 12, SF-1-120]	> 300	
Cc1ccc(S(=O)(=O)N(C)CC(=O)N(Cc2ccc(C3CCN(S(=O)(=O)c4ccc(C#N)cc4)CC3)cc2)c2ccc(C(=O)O)c(O)c2)cc1 [27kg, 27 kg]	50 ± 15	
Cc1ccc(S(=O)(=O)NCC(=O)Nc2ccc(C(=O)O)c(O)c2)cc1 [compound 9, SF-1-082]	> 300	
Cc1ccc(S(=O)(=O)N(C)CC(=O)N(Cc2ccc(-c3ccc(C(N)=O)cc3)cc2)c2ccc(C(=O)O)c(O)c2)cc1 [27lg, 27 lg]		IC50 ([1]; read-out: [drawing 30] / IC50): > 300 µM
Cc1ccc(S(=O)(=O)N(CC(=O)Nc2ccc(C(=O)O)c(O)c2)C(=O)OC(C)(C)C)cc1 [compound 11, 11]	> 300	
Cc1ccc(S(=O)(=O)NCC(=O)N(Cc2ccc(C3CCCCC3)cc2)c2ccc(C(=O)O)c(O)c2)cc1 [compound 41, SF-1-083]	95 ± 9	
Cc1ccc(S(=O)(=O)N(C)CC(=O)N(Cc2ccc(C3CCN(C(=O)C(F)(F)F)CC3)cc2)c2ccc(C(=O)O)c(O)c2)cc1 [27ka, 27 ka]	> 300	
Cc1ccc(S(=O)(=O)N(C)CC(=O)N(Cc2ccc(C3CCN(C(=O)OC(C)(C)C)CC3)cc2)c2ccc(C(=O)O)c(O)c2)cc1 [27kc, 27 kc]	> 300	

Reference: PMC3192013 (ChemMedChem, 2011)
